According to article PMC8079033, “Design, synthesis, anticancer evaluation, and molecular modelling studies of novel tolmetin derivatives as potential VEGFR-2 inhibitors and apoptosis inducers” (Journal of Enzyme Inhibition and Medicinal Chemistry, 2021):

Assays:
VEGFR-2 (KDR) = target: T1, VEGFR-2 (KDR) (Homo sapiens, UniProt P35968); assay: VEGFR-2 (KDR) Kinase Assay Kit (Kinase-Glo Max luminescence); type: biochemical; details: mean ± SD of three experiments
T1 construct: purchased 40325
Procedure: In brief, the master mixture (25 µl per well) was prepared and added to each well. 5 µl of inhibitor solution of each well labelled as “Test Inhibitor” was added. For the “Positive Control” and “Blank,” 5 µl of the same solution without inhibitor (Inhibitor buffer) was added. 3 ml of kinase buffer was prepared by mixing 600 µl of kinase buffer with 2400 µl water. To the wells designated as “Blank,” 20 µl of kinase buffer was added. The amount of VEGFR-2 required for the assay was calculated and the enzyme was diluted to 1 ng/µl with kinase buffer. The reaction was initiated by adding 20 µl of diluted VEGFR-2 enzyme to the wells designated “Positive Control” and “Test Inhibitor Control.” The mixtures were incubated at 30 °C for 45 min. After the 45 min, 50 µl of Kinase-Glo Max reagent was added to each well. The plate was incubated at room temperature for 15 min. Luminescence was measured using the microplate reader.

HCT-15 cells [1] = assay: Cell cycle analysis by flow cytometry (PI); type: cell-based, human
Procedure: After treatment, the cells were washed twice with ice-cold phosphate buffer saline (PBS), collected by centrifugation, and fixed in ice-cold 70% (v/v) ethanol, washed with PBS, resuspended with 0.1 mg/ml RNase, stained with […] propidium iodide (PI), and analysed by flow cytometry using FACS Calibur (Becton Dickinson)[45]. The cell cycle distributions were calculated using Cell- Quest software (Becton Dickinson).
Anticancer agents exert their cytotoxic action by aborting cellular proliferation at certain checkpoints. These checkpoints are distinguishable phases in the cell cycle, whose suppression results in the termination of the cell proliferation. Cell cycle analysis employs flow cytometry to distinguish cells within the different cell cycle phases. […] Moreover, marked augmentation in the proportion of cells in the G0-G1 phase by 1.32-fold, and in the Sub-G1 phase by 18.7-fold, in comparison to the control (DMSO).

HCT-15 cells [2] = assay: Annexin V-FITC/PI apoptosis assay; type: cell-based, human
Procedure: Apoptosis was determined by staining the cells with Annexin V fluorescein isothiocyanate (FITC) and counterstaining with PI using the Annexin V-FITC/PI apoptosis detection kit (BD Biosciences, San Diego, CA) according to the manufacturer’s instructions. […] The cells then were collected by trypsinization and 0.5 × 10^6 cells were washed twice with PBS and stained with 5 µl Annexin V-FITC and 5 µl PI in 1 × binding buffer for 15 min at room temperature in the dark. Analyses were performed using FACS Calibur flow cytometer (BD Biosciences, San Jose, CA).
This clearly verifies that, cell death resulting from the antiproliferative action of the target tolmetin derivative 5b was attributable to physiological apoptosis.

caspase-9 = assay: Caspase-9 ELISA in HCT-15 cells; type: cell-based, human
Procedure: (§1) To measure caspase-8 and caspase-9 levels, DRG® Caspase-8 (human) (EIA-4863) ELISA and DRG® Caspase-9 (human) (EIA-4860) ELISA kits were used. Briefly, prepare cell extracts after induction of apoptosis. Resuspend the extracts in lysis buffer, incubate 60 min at room temperature, and centrifuge for 15 min. Wash the microwell strips with 400 µl wash buffer. Add 100 µl of sample diluent in duplicate to all standard wells. Add 100 µl of sample diluent in duplicate to the blank wells. Add 50 µl of sample diluent to the sample wells. Add 50 µl of each sample in duplicate to the sample wells. Add 50 µl of detection antibody to all wells and incubate at room temperature for 2 h. Add 100 µl of diluted anti-rabbit-IgG-HRP to all wells, including the blank wells. Pipette 100 µl of (3,3′,5,5′-Tetramethylbenzidine) TMB substrate solution to all wells and incubate at room temperature for about 15 min. Stop the enzyme reaction by pipetting 100 µl of stop solution into each well. Read absorbance of each microwell on a spectro-photometer using 450 nm. Determine the absorbance of both the samples and the standards.
(§2) The activation of caspases as caspase-3, caspase-8, and caspase-9 is responsible for apoptosis, particularly caspase-3 which is an effector caspase that has an important role in apoptosis. It is activated by one of the initiator caspases which results in the activation of certain enzymes responsible for the fragmentation of DNA[53]. Caspase-8 and -9 are initiator caspases that are responsible for caspase-3 activation.

caspase-8 = assay: Caspase-8 ELISA in HCT-15 cells; type: cell-based, human
Procedure: as §1, §2

caspase-3 = assay: Caspase-3 (active) ELISA in HCT-15 cells; type: cell-based, human
Procedure: The level of the apoptotic marker caspase-3 was assessed using Human Caspase-3 (active) ELISA Kit Catalog # KHO1091. The procedure of the used kit was done according to the manufacturer’s instructions. Allow all reagents to reach room temperature before use. Gently mix all liquid reagents prior to use. Add 100 µl of the standard diluent buffer to the zero standard wells. Add 100 µl of standards and controls or diluted samples to the appropriate microtiter wells. Incubate for 2 h at room temperature. […] Incubate for 1 h at room temperature. Add 100 µl anti-rabbit IgG HRP working solution to each well. Prepare the working dilution and incubate for 30 min at room temperature. Add 100 µl of stabilised chromogen to each well. The liquid in the wells will begin to turn blue. Incubate for 30 min at room temperature and in the dark. Add 100 µl of stop solution to each well. The solution in the wells should change from blue to yellow. Read the absorbance of each well at 450 nm. Read the plate within 2 h after adding the stop solution. Use a curve fitting software to generate the standard curve. Read the concentrations for unknown samples and controls from the standard curve.
as §2

HUVECs = assay: Wound healing assay (CytoSelect 24-well); type: cell-based, human; details: 72 h, 5b 2.4 µM, sunitinib 3.2 µM, control 97.03 ± 5.47
Procedure: Wound healing assay of compound 5b was evaluated using CytoSelect™ 24-Well Wound Healing Assay kit Catalog # CBA-120 according to manufacturer’s instructions. In brief, the 24-well plate wound healing inserts were allowed to warm up at room temperature for 10 minutes, then to each well, 500 µl of human umbilical vascular endothelial cells (HUVECs) suspension (1.0 × 10^6) in media containing 10% fetal bovine serum (FBS) was added. Cells were kept in a cell culture incubator until a monolayer form. Carefully the insert was removed from the well. The media were slowly aspirated and discarded from the wells. The wells were washed with media to remove dead cells and debris. Finally, the media were added to wells to keep cells hydrated, then wells were visualized under a light microscope. […] The percent closure of the cells into the wound field was measured.
One of the hallmarks of angiogenesis is cell migration, which happens in the earlier stages of the angiogenic cascade. A wound-healing assay was performed to investigate in vitro anti-angiogenic property of compound 5b.

T1 sequence (P35968 20-1356): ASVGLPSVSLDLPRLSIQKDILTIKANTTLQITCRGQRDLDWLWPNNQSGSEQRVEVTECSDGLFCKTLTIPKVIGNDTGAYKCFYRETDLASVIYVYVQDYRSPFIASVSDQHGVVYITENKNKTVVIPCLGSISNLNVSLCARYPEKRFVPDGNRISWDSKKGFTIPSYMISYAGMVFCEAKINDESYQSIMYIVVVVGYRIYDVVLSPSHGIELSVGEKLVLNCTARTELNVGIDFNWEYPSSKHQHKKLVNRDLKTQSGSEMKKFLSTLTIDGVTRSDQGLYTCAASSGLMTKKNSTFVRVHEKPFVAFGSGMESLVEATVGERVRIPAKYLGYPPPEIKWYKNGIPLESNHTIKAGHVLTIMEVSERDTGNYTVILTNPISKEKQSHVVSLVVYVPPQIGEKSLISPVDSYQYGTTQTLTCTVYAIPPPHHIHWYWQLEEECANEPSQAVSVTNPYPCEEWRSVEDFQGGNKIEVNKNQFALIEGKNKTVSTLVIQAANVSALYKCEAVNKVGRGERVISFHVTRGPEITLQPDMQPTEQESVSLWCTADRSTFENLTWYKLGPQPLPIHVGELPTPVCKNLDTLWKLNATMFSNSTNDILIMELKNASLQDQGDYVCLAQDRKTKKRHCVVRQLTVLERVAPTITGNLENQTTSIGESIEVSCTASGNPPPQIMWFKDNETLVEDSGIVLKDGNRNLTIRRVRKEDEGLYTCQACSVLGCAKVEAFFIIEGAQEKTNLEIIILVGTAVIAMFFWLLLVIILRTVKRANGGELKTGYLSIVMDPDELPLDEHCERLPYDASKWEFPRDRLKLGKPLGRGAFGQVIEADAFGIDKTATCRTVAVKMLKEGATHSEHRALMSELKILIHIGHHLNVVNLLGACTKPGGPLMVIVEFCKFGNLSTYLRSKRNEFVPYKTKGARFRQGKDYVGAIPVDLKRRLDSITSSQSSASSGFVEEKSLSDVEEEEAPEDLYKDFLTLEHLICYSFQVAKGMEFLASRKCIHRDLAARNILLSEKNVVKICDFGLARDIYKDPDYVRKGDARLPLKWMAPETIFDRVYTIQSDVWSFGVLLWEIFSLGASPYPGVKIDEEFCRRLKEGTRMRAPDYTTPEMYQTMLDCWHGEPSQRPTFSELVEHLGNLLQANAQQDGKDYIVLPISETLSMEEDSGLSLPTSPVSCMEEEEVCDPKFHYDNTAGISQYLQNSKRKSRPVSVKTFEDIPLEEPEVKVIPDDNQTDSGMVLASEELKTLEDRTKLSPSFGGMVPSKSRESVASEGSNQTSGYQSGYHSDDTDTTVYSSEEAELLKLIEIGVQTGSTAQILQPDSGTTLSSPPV

SMILES: Cc1ccc(C(=O)c2ccc(CC(=O)NN=Cc3cccc(O)c3O)n2C)cc1 [Compound 5b, N′-(2,3-Dihydroxybenzylidene)-2–(1-methyl-5–(4-methylbenzoyl)-1H-pyrrol-2-yl) acetohydrazide]
- IC50 (VEGFR-2 (KDR)): 0.2 ± 0.02 µM
- augmentation in the proportion of cells in the G0-G1 phase (HCT-15 cells [1]; 6.62 µM, vs control (DMSO)): 1.32 fold
- decline in the cell population at the G2/M phase (HCT-15 cells [1]; 6.62 µM, vs control (DMSO)): 65.61%
- decline in the cell population at the S phase (HCT-15 cells [1]; 6.62 µM, vs control (DMSO)): 16.88%
- %Pre-G1 (HCT-15 cells [1]; IC50 concentration (6.62 µM), 24 h, control 1.46): 37.29%
- %G2/M (HCT-15 cells [1]; IC50 concentration (6.62 µM), 24 h, control 6.95): 2.39%
- %G0–G1 (HCT-15 cells [1]; IC50 concentration (6.62 µM), 24 h, control 41.69): 54.92%
- %S (HCT-15 cells [1]; IC50 concentration (6.62 µM), 24 h, control 51.36): 42.69%
- Apoptosis Late (HCT-15 cells [2]; IC50 concentration, 24 h, control 0.13): 22.12%
- Apoptosis Early (HCT-15 cells [2]; IC50 concentration, 24 h, control 0.34): 2.66%
- Apoptosis Total (HCT-15 cells [2]; IC50 concentration, 24 h, control 0.47): 24.78%
- Necrosis (HCT-15 cells [2]; IC50 concentration, 24 h, control 0.99): 12.51%
- increase in the total apoptosis percentage (HCT-15 cells [2]; vs control (DMSO)): 52.72 fold
- Caspase-9 (caspase-9; mean ± SD of three experiments, control 3.225 ± 0.44): 24.58 ± 0.82 ng/mL
- increase in the level of caspase-9 (caspase-9; vs control): 7.622 fold
- Caspase-8 (caspase-8; mean ± SD of three experiments, control 0.377 ± 0.03): 0.704 ± 0.06 ng/mL
- increase in the level of caspase-8 (caspase-8; vs control): 1.867 fold
- Caspase-3 (caspase-3; mean ± SD of three experiments, control 0.073 ± 0.01): 0.570 ± 0.01 ng/mL
- increase in the level of caspase-3 (caspase-3; vs control): 7.808 fold
- Wound closure percentage (HUVECs): 51.85 ± 2.92%
